From ChEMBL document CHEMBL3751755, “Developing steroidal aromatase inhibitors-an effective armament to win the battle against breast cancer” (Eur J Med Chem, 2015)

Each compound was assayed against T1, Aromatase (Homo sapiens, UniProt P11511) (assay: Inhibition of human aromatase extracted from placental microsomes using [1beta-3H]AD as substrate by radiometric assay). Settings: not given.
T1 sequence (P11511 whole entry): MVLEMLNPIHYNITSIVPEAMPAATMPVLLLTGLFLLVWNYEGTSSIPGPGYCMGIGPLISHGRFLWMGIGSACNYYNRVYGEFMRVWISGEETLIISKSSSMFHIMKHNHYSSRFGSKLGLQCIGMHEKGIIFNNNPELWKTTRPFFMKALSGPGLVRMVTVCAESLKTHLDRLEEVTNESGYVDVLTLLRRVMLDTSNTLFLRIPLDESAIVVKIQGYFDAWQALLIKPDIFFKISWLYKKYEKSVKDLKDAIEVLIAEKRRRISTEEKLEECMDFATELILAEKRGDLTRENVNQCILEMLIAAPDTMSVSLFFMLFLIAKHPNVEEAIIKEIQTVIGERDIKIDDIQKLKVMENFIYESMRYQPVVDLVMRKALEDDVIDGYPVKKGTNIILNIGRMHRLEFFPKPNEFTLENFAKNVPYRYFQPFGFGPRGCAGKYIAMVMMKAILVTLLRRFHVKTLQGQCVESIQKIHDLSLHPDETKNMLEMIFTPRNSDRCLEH

| SMILES | IC50 [nM] |
| --- | --- |
| C[C@H]1C[C@@]2(C)C(=CC1=O)CC[C@@H]1[C@@H]2CC[C@]2(C)C(=O)CC[C@@H]12 | 250 |
| CC1(C)C[C@@]2(C)C(=CC1=O)CC[C@@H]1[C@@H]2CC[C@]2(C)C(=O)CC[C@@H]12 | 89 |
| C=C1C[C@@]2(C)C(=CC1=O)CC[C@@H]1[C@@H]2CC[C@]2(C)C(=O)CC[C@@H]12 | 550 |
| C[C@@H]1C[C@@]2(C)C(=CC1=O)CC[C@@H]1[C@@H]2CC[C@]2(C)C(=O)CC[C@@H]12 | 690 |

These compounds were tested against T1, Aromatase (assay: Competitive inhibition of human aromatase extracted from placental microsomes by Dixon plot analysis in presence of [1beta-3H]AD). Settings: read-out: Ki.

| SMILES | Ki [nM] |
| --- | --- |
| C[C@H]1C[C@@]2(C)C(=CC1=O)CC[C@@H]1[C@@H]2CC[C@]2(C)C(=O)CC[C@@H]12 | 22 |
| CC1(C)C[C@@]2(C)C(=CC1=O)CC[C@@H]1[C@@H]2CC[C@]2(C)C(=O)CC[C@@H]12 | 8.8 |
| CO[C@H]1C=C2C(=O)C[C@@H]3[C@H](CC[C@]4(C)C(=O)CC[C@@H]34)[C@@]2(C)CC1 | 700 |
| C=C1C[C@@]2(C)C(=CC1=O)CC[C@@H]1[C@@H]2CC[C@]2(C)C(=O)CC[C@@H]12 | 68 |
| CO[C@@H]1C[C@@]2(C)C(=CC1=O)CC[C@@H]1[C@@H]2CC[C@]2(C)C(=O)CC[C@@H]12 | 670 |
| C[C@]12C[C@@H](Cl)C(=O)C=C1CC[C@@H]1[C@@H]2CC[C@]2(C)C(=O)CC[C@@H]12 | 45 |
| C[C@]12C[C@@H](Br)C(=O)C=C1CC[C@@H]1[C@@H]2CC[C@]2(C)C(=O)CC[C@@H]12 | 45 |
| C[C@]12CCC(=O)C=C1C(=O)C[C@@H]1[C@@H]2CC[C@]2(C)C(=O)[C@H](O)C[C@@H]12 | 1180 |
| C[C@@H]1C[C@@]2(C)C(=CC1=O)CC[C@@H]1[C@@H]2CC[C@]2(C)C(=O)CC[C@@H]12 | 55 |
| CCO[C@@H]1C[C@@]2(C)C(=CC1=O)CC[C@@H]1[C@@H]2CC[C@]2(C)C(=O)CC[C@@H]12 | 670 |
| C[C@]12C[C@@H](O)C(=O)C=C1CC[C@@H]1[C@@H]2CC[C@]2(C)C(=O)CC[C@@H]12 | 670 |

Same assay, conditions: read-out: Ki(app)

| SMILES | Ki [nM] |
| --- | --- |
| C[C@]12CCC(=O)C=C1C(=O)C[C@@H]1[C@@H]2CC[C@]2(C)C(=O)[C@H](Br)C[C@@H]12 | 150 |

These compounds were tested against T1, Aromatase (assay: Inhibition of human aromatase extracted from placental microsomes using [1beta-3H]androstenedione as substrate after 20 mins by radiometric assay). Settings: not given.

| SMILES | IC50 [nM] |
| --- | --- |
| C[C@]12C=C(CCCc3ccccc3)C(=O)C=C1CC[C@@H]1[C@@H]2CC[C@]2(C)C(=O)CC[C@@H]12 | 140 |
| CC1=C[C@@]2(C)C(=CC1=O)CC[C@@H]1[C@@H]2CC[C@]2(C)C(=O)CC[C@@H]12 | 580 |
| C[C@]12CC[C@H](OC=O)C=C1C(=O)C[C@@H]1[C@@H]2CC[C@]2(C)C(=O)CC[C@@H]12 | 1700 |
| CC1=C[C@@]2(C)C(=CC1=O)[C@@H](Br)C[C@@H]1[C@@H]2CC[C@]2(C)C(=O)CC[C@@H]12 | 710 |
| C[C@]12CCCC=C1C(=O)C[C@@H]1[C@@H]2CC[C@]2(C)C(=O)CC[C@@H]12 | 1700 |
| CC(=O)O[C@@H]1C=C2C(=O)C[C@@H]3[C@H](CC[C@]4(C)C(=O)CC[C@@H]34)[C@@]2(C)CC1 | 1700 |

Each compound was assayed against T1, Aromatase (assay: Competitive inhibition of human aromatase extracted from placental microsomes by Dixon plot analysis in presence of [1beta-3H]androstenedione). Settings: read-out: Ki.

| SMILES | Ki [nM] |
| --- | --- |
| CC[C@]12CCC(=O)C=C1C=C[C@@H]1[C@@H]2CC[C@]2(C)C(=O)CC[C@@H]12 | 8.2 |
| C[C@]12CCCCC1=CC(=O)[C@@H]1[C@@H]2CC[C@]2(C)C(=O)CC[C@@H]12 | 143 |
| C[C@]12CC[C@H](OC=O)C=C1C(=O)C[C@@H]1[C@@H]2CC[C@]2(C)C(=O)CC[C@@H]12 | 16000 |
| CC[C@]12C=CC(=O)C=C1CC[C@H]1[C@@H]3CCC(=O)[C@@]3(C)CC[C@@H]12 | 8.2 |
| CC[C@]12C=CC(=O)C=C1C=C[C@H]1[C@@H]3CCC(=O)[C@@]3(C)CC[C@@H]12 | 8.2 |
| C[C@]12CCCC=C1C(=O)C[C@@H]1[C@@H]2CC[C@]2(C)C(=O)CC[C@@H]12 | 610 |
| C[C@]12CC[C@H]3[C@@H](C(=O)C=C4CCCC[C@@]43CO)[C@@H]1CCC2=O | 11100 |
| CC(=O)O[C@@H]1C=C2C(=O)C[C@@H]3[C@H](CC[C@]4(C)C(=O)CC[C@@H]34)[C@@]2(C)CC1 | 5500 |

Same assay, conditions: read-out: Ki(app)

| SMILES | Ki [nM] |
| --- | --- |
| CCCCC[C@@H]1C[C@@H]2[C@H](CC[C@]3(C)C(=O)CC[C@@H]23)[C@@]2(C)C=CC(=O)C=C12 | 5 |
| C[C@]12CC[C@H]3[C@@H](C(=O)C=C4CCCC[C@@]43O)[C@@H]1CCC2=O | 1100 |
| CC[C@@H]1C[C@@H]2[C@H](CC[C@]3(C)C(=O)CC[C@@H]23)[C@@]2(C)C=CC(=O)C=C12 | 4.7 |

These compounds were tested against T1, Aromatase (assay: Competitive inhibition of human aromatase extracted from placental microsomes after 10 mins in presence of [1beta-3H]androstenedione). Settings: not given.

| SMILES | Ki [nM] |
| --- | --- |
| CCCC[C@H]1C[C@@H]2[C@H](CC[C@]3(C)C(=O)CC[C@@H]23)[C@@]2(C)CCC(=O)C=C12 | 1.4 |
| C#CC[C@H]1C[C@@H]2[C@H](CC[C@]3(C)C(=O)CC[C@@H]23)[C@@]2(C)CCC(=O)C=C12 | 37 |
| C[C@]12CCC(=O)C=C1[C@@H](Cc1ccccc1)C[C@@H]1[C@@H]2CC[C@]2(C)C(=O)CC[C@@H]12 | 10 |
| C[C@H]1C[C@@H]2[C@H](CC[C@]3(C)C(=O)CC[C@@H]23)[C@@]2(C)CCC(=O)C=C12 | 1.4 |

What follows are compounds tested against T1, Aromatase. Settings: not given.

| SMILES | Ki [nM] |
| --- | --- |
| C[C@]12C=C(CCCc3ccccc3)C(=O)C=C1CC[C@@H]1[C@@H]2CC[C@]2(C)C(=O)CC[C@@H]12 | 16.1 |
| CC1=C[C@@]2(C)C(=CC1=O)CC[C@@H]1[C@@H]2CC[C@]2(C)C(=O)CC[C@@H]12 | 46 |
| CC1=C[C@@]2(C)C(=CC1=O)[C@@H](Br)C[C@@H]1[C@@H]2CC[C@]2(C)C(=O)CC[C@@H]12 | 81 |
